Tests used:
[1] = test system: IL-6; test: IL-6 secretion by ELISA, LPS-treated primary human M1 macrophages, Example 5; format: cell-based
Description: Primary human PMBC derived macrophages were seeded on day 0 at 3.0E4 cells per well in 96-well microplates (ThermoFisher) in Dulbecco's Modified Eagle Medium (DMEM) (Gibco) supplemented with penicillin-streptomycin (Hyclone) and 10% heat inactivated fetal bovine serum (HI-FBS) (Atlanta Bio) and incubated overnight at 37° C., 5% CO2. On day 1, cells were washed once with 150 uL per well DPBS (Gibco) and treated with 75 uL of: • a. Amino acid free DMEM (US Biologicals) containing a defined custom amino acid concentration based on the mean physiological concentrations in blood based on values published in the Human Metabolome Database (HMDB), with 6 mM glucose, 1 mM sodium pyruvate, 10 mM HEPES, 0.2% primocin (InVivoGen); or • b. The same media described above with supplemental amino acid and amino acid combination treatments at various concentrations. […]
(§1) On day 3, the supernatant was collected and immediately frozen in −80° C. freezer. Cells were washed once with 150 uL DPBS and viability was assessed using the WST-8 Cell Proliferation Cytotoxicity Assay (Dojindo). […] Protein levels in supernatant samples were analyzed by ELISA for IL-6 and TNFa using commercially available kits (R&D Systems) according to manufacturer-supplied protocols.

[2] = test system: CCL18; test: CCL18 secretion by ELISA, IL-4-treated primary human M2 macrophages, Example 5; format: cell-based; conditions: IL-4 1 ng/ml, 5 mM
Description: On day 0, primary human PBMC derived macrophages were seeded in Dulbecco's Modified Eagle Medium (DMEM) (Gibco) supplemented with penicillin-streptomycin (Hyclone) and 10% heat inactivated fetal bovine serum (HI-FBS) (Atlanta Bio) into 96-well microplates (ThermoFisher) and incubated overnight at 37° C., 5% CO2. On day 1, cells were washed once with DPBS and then treated with: • a. Amino acid free DMEM (US Biologicals) containing a defined custom amino acid concentration based on the mean physiological concentrations in blood based on values published in the Human Metabolome Database (HMDB), with 6 mM glucose, 1 mM sodium pyruvate, 10 mM HEPES, penicillin-streptomycin; or • b. The same medium described above with one amino acid or amino acid combination at various concentrations
On day 2, cells were treated with the same mediums described above supplemented with recombinant human interleukin-4 (1 ng/ml of IL-4; Peprotech). […]
as §1, with “with” for “with 150 uL”, “(Dojindo) according to manufacturer-supplied protocol.” for “(Dojindo).”, “CCL18” for “IL-6 and TNFa”

[3] = test system: M1 macrophages; test: Seahorse XF real-time ATP rate assay in LPS-treated M1 macrophages, Example 6; format: cell-based, human
Description: Primary human PMBC derived macrophages were seeded on day 0 at 2.0E4 cells per well in a Seahorse […] Cell Culture Microplate V3-PS TC-Treated plate (Agilent) coated with 0.1 mg/mL Poly-D-Lysine (Trevigen) in Dulbecco's Modified Eagle Medium (DMEM) (Gibco) supplemented with penicillin-streptomycin (Gibco) and 10% heat inactivated fetal bovine serum (HI-FBS) (Atlanta Bio) and incubated overnight at 37° C., 5% CO2. On day 1, cells were washed once with 150 uL per well DPBS (Gibco) and treated with 100 uL of: • a. Amino acid free DMEM (US Biologicals) containing a defined custom amino acid concentration based on the mean physiological concentrations in blood based on values published in the Human Metabolome Database (HMDB), with 6 mM glucose, 1 mM sodium pyruvate, 10 mM HEPES (Sigma), and penicillin-streptomycin (Gibco); or • b. The same media described above with supplemental amino acid and amino acid combination treatments at various concentrations. […] Control wells were treated with 0.15 ng/mL LPS, or phosphate buffered saline (PBS). On day 3, the supernatant was collected and immediately frozen in a -80° C. freezer. Cells were analyzed for total ATP production rate, glycolytic ATP production rate, and mitochondrial ATP production rate using a commercially available kit (Agilent Seahorse XF Real-Time ATP Rate Assay Kit) according to manufacturer-supplied protocol on a Seahorse XFe instrument. A custom assay medium (amino acid free DMEM/F12 without phenol red or sodium bicarbonate (US Biologicals) containing a defined custom amino acid concentration based on the mean physiological concentrations in blood based on values published in the Human Metabolome Database (HMDB), with 10 mM XF glucose (Agilent), 1 mM XF pyruvate (Agilent), and 5 mM HEPES (Sigma) was used. Buffer factor for the custom assay medium was determined according to manufacturer-supplied protocol. Following the assay, cells were washed twice with PBS and fixed with 4% paraformaldehyde.

[4] = 30× LIRQNacSCar (7.5 mM Nac and Car) or 7.5 mM Nac vs LPS vehicle control

`CC(=O)N[C@@H](CS)C(=O)O` [Nac, N-acetylcysteine] was tested, and the “LPS-stimulated IL-6 secretion (in words)” value [1] was “decreased LPS-stimulated IL-6 and TNFa secretion”, the “CCL18 Median Fold Change from Vehicle (log2)” value [2] was 0.387 log2 and the “glycolytic ATP production rate (in words)” value [3, 4] was “significantly decreased glycolytic, mitochondrial, and total ATP rate measurements”. For the same compound, the “mitochondrial ATP production rate (in words)” value [3, 4] was “significantly decreased glycolytic, mitochondrial, and total ATP rate measurements”, the “total ATP rate (in words)” value [3, 4] was “significantly decreased glycolytic, mitochondrial, and total ATP rate measurements” and the “Glycolytic ATP Rate, Median Fold Change from Vehicle (Log2)” value ([3]; LPS 0.15 ng/mL, 7.5 mM) was −0.461 Log2. For the same compound, the “Mitochondrial ATP Rate, Median Fold Change from Vehicle (Log2)” value ([3]; LPS 0.15 ng/mL, 7.5 mM) was −0.196 Log2 and the “Total ATP Rate, Median Fold Change from Vehicle (Log2)” value ([3]; LPS 0.15 ng/mL, 7.5 mM) was −0.2744 Log2.
